{"source": "patent US20210371413A1", "about": "“POLYCYCLIC AMIDES AS CYTOTOXIC AGENTS” (FEMTOGENIX LIMITED, priority 2018, published 2021)", "key": {"U138-MG (Glioblastoma)": {"test_system": "U138-MG (Glioblastoma)", "experiment": "In vitro cytotoxicity, MTT assay, U138-MG", "type": "cell-based", "conditions": "Homo sapiens, U138-MG, 72 h, read-out: Cytotoxicity", "method": "The in vitro cytotoxicity of a selection of compounds were evaluated in a panel of cell lines using the standard MTT assay for a 72 hour incubation period (Table 2). Free payloads produced cytotoxicities in the nanomolar range.\nTumor cell lines were maintained in RPMI1640 medium supplemented with 10% heat-inactivated fetal bovine serum, 2 mM L-glutamine and 1 mM sodium pyruvate. 1800 cells per well were seeded in a volume of 180 μl in a 96-well flat bottom polystyrene plate. The cells were allowed to adhere overnight at 37° C. in a CO2 incubator. Ligands were initially formulated in DMSO, and stocks stored at −80° C. They were then further formulated at lox concentration in RPMI1640 medium. 20 ul of diluted samples were added into each treatment well. On each plate, blank wells with no cells, and untreated wells containing cells, were included. Plates were then cultured at 37° C. in a CO2 incubator for 72 hrs. Cytotoxicity was evaluated using a tetrazolium salt-based assay, the MTT assay. After 72 hours, the supernatant was removed from each well and 200 μl of a sterile filtered 500 μg/ml MTT solution in water added to each well. The plates were then incubated at 37° C. in a CO2 incubator for 4 hrs. The supernatant was then removed and the formazan crystals formed solubilized by adding 150 μl of DMSO to each well. The plate was then read on a plate reader at 540 nm, and percentage cell survival calculated as follows: ((mean absorbance treated wells at concentration x−mean absorbance blank wells)+(mean absorbance untreated wells at concentration x−mean absorbance blank wells))×100. Data were plotted as concentration in nM vs. % cell survival in Microsoft Excel, and IC50 values (concentration where cell survival is reduced by a half) were determined from the graph."}, "DS3 DNA fragment": {"test_system": "DS3 DNA fragment", "experiment": "DNA footprinting, DS3 DNA fragment", "type": "binding", "method": "The DNA sequence selectivity profile of the molecules was investigated using a modification of the previously established DNA footprinting assay. Following an overnight incubation of the ligand-DNA complexes, the mixture was mixed with strand separation buffer containing 10 mM EDTA, 10 mM NaOH, 0.1% bromophenol blue, 80% formamide and incubated at 100° C. for 3 min. The mixture was then immediately cooled on ice and run on an 8% denaturing gel.\nThe preparation of the DS3 DNA fragment (FIG. 5) and the “D” DNA fragment (FIG. 6) has been previously described. Briefly, the sequence which had been cloned into the BamHI site of pUC18 was obtained by cutting with HindIII and EcoRI. Radiolabelled DNA fragments were prepared by filling in the 3′-end of the HindIII site with [α-^32P]dATP using Klenow DNA polymerase (exo-).\nThe radiolabelled DNA fragment was separated from the remainder of the plasmid DNA on a 6% non-denaturing polyacrylamide gel. The gel (20 cm long, 0.3 mm thick) was run at 400 V in 1×TBE running buffer for about 1-2 h, until the bromophenol blue had run most of the way down the gel. The glass plates were separated and the position of the labelled DNA fragment was established by short (1 min) exposure to an X-ray film. The relevant band was then cut from the gel and the radiolabelled DNA eluted by adding 300 μL 10 mM Tris-HCl, pH 7.5 containing 0.1 mM EDTA and gently agitating overnight at room temperature. The eluted DNA was finally precipitated with ethanol and re-suspended in a suitable volume of 10 mM Tris-HCl, pH 7.5 containing 0.1 mM EDTA buffer so as to give at least 10 counts per second/μL on a hand-held Geiger counter. […]\nFootprinting reactions were performed as previously described using the DNA fragments DS3, which contains tracts of AT/GC bases; and using the “D” DNA fragments which represents a random DNA sequence. […] After gel purification, the radiolabelled DNA was dissolved in 10 mM Tris-HCl pH 7.5 containing 0.1 mM EDTA, at a concentration of about 10 c.p.s per μL as determined on a hand held Geiger counter. […]"}, "[1]": {"test_system": "transcription factors in HeLa cells", "experiment": "Transcription factor plate array assay", "type": "cell-based", "conditions": "100 nM, 6 hours", "method": "The consensus sequences of each of these transcription factors corresponds to the DNA footprinting pattern observed for 16.\nThe transcription factor plate array assay kit was obtained from Signosis Inc (USA). Briefly, 2×10^6 HeLa cells were treated with 100 nM compound 16 and incubated for 6 hours before extracting the nuclear protein and carrying out the TF plate array assay. The assay was carried out following the manufacturer's protocol. In the case of each transcription factor, the RLU value obtained for the cells treated with 16 was deducted from the respective values obtained for the untreated cells to obtain the differences in TF activation/inhibition."}}, "data": [{"smiles": "COc1cc2c(cc1OCCCC(=O)Nc1cc(C(=O)Nc3ccc(-c4cc(C(=O)Nc5ccc(N)cc5)n(C)c4)cc3)n(C)c1)NC[C@@H]1CCCCN1C2=O", "note": "[Compound 16, (S)—N-(4-Aminophenyl)-4-(4-(4-(4-((2-methoxy-12-oxo-5,6,6a,7,8,9,10,12-octahydrobenzo[e]pyrido[1,2-a][1,4]diazepin-3-yl)oxy)butanamido)-1-methyl-1H-pyrrole-2-carboxamido)phenyl)-1-methyl-1H-pyrrole-2-carboxamide]", "values": [{"measurement": "IC50", "setting": "U138-MG (Glioblastoma)", "value": 184, "unit": "nM"}, {"measurement": "DNA binding pattern (footprint)", "setting": "DS3 DNA fragment; DS3 DNA sequence", "value": "predominantly target AT rich regions"}, {"measurement": "DNA-binding site sequence (X any base, W A or T)", "setting": "DS3 DNA fragment; from DNA footprinting, fragment not stated", "value": "XXXXWWW"}, {"measurement": "major transcription factors down-regulated", "setting": "[1]", "value": "GR/PR, CDP, ATG2 and Oct-4"}]}]}
